{"source": "paper PMC2981568", "about": "(PLoS ONE, 2010)", "key": {"[1]": {"target": "T1, MtbPRPPase (phosphoribosylpyrophosphate synthetase) (Mycobacterium tuberculosis, UniProt P9WKE3)", "T1 construct": "gene prs", "test": "[…]; inhibition curve and steady-state kinetics ([…] Pi; IC50 […] at […] Pi)", "assay_type": "biochemical"}, "[2]": {"target": "T1, MtbPRPPase (phosphoribosylpyrophosphate synthetase)", "test": "biochemical"}, "[3]": {"target": "the molecule itself", "test": "SEC"}}}
{"molecule": "Nc1ncnc2c1ncn2[C@@H]1O[C@H](COP(=O)(O)OP(=O)(O)O)[C@@H](O)[C@H]1O", "note": "[ADP]", "values": [{"measurement": "IC50", "setting": "[1]", "result": 400, "unit": "µM"}]}
{"molecule": "Nc1nc2c(ncn2[C@@H]2O[C@H](COP(=O)(O)OP(=O)(O)O)[C@@H](O)[C@H]2O)c(=O)[nH]1", "note": "[GDP]", "values": [{"measurement": "IC50", "setting": "[2]", "result": "> 5000", "unit": "µM"}]}
{"molecule": "Mycobacterium tuberculosis phosphoribosylpyrophosphate synthetase (enzyme, also called MtbPRPPase; M. tuberculosis PRPPase; not shown: His6, N-terminal, kept) MSHDWTDNRKNLMLFAGRAHPELAEQVAKELDVHVTSQDAREFANGEIFVRFHESVRGCDAFVLQSCPAPVNRWLMEQLIMIDALKRGSAKRITAVMPFYPYARQDKKHRGREPISARLIADLLKTAGADRIVTVDLHTDQIQGFFDGPVDHMRGQNLLTGYIRDNYPDGNMVVVSPDSGRVRIAEKWADALGGVPLAFIHKTRDPRVPNQVVSNRVVGDVAGRTCVLIDDMIDTGGTIAGAVALLHNDGAGDVIIAATHGVLSDPAAQRLASCGAREVIVTNTLPIGEDKRFPQLTVLSIAPLLASTIRAVFENGSVTGLFDGDA", "values": [{"measurement": "stoichiometry N", "setting": "[3]", "result": 6}]}
